Experimental data reported in ChEMBL document CHEMBL1201862, “PubChem BioAssay data set” (2004).
The source made the active and inactive calls.

What was measured:
[1] = target: FAD-linked sulfhydryl oxidase ALR (Homo sapiens, UniProt P55789); test: ALR-catalysed DTT oxidation blockers – biochemical, H2O2 detection, luminescence, cherry-pick, dose response (AID 493248)
[2] = target: T1, Rac GTPase-activating protein 1 (Homo sapiens, UniProt Q9H0H5); test: blockers of MgcRacGAP-driven Rac1 GTP hydrolysis – biochemical, ADP Hunter fluorescence, primary and confirmatory, confirmation (AID 624330); assay type: functional
T1 sequence (Q9H0H5 whole entry): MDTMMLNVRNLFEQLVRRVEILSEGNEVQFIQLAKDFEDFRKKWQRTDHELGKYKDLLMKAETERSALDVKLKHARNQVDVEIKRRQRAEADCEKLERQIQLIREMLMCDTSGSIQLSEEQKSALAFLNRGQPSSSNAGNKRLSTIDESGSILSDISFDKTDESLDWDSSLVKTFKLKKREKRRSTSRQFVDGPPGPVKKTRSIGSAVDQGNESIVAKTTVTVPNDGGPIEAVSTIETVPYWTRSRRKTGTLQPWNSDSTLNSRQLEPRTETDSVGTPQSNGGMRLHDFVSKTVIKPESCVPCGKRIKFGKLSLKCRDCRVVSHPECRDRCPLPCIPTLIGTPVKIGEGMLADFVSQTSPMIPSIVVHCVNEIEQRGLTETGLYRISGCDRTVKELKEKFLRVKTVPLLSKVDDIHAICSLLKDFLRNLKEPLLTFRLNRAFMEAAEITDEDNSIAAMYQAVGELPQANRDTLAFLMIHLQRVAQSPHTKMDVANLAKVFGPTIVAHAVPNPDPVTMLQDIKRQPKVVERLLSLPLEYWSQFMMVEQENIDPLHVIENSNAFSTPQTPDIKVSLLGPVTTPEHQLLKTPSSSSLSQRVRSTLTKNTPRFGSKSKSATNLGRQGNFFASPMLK

[3] = viability of PTEN-deleted HCT116 cells – cell-based, HCT116 PTEN knockout, dose response (AID 1047); assay type: functional;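 further: HCT116 colon tumor cells with PTEN knocked out; cells exposed to compound for 60 hours before readout; potency for loss of cell viability measured by luminescence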
Streptococcus = test: GAS UMAA2166 growth inhibition – luminescence, BacTiterGlo, counter-screen for streptokinase expression inhibitor project, dose response (AID 1915); assay type: functional, organism-based;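 further: potency for reduction of bacterial viability or growth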
[4] = viability of HCT116 lacking mutant beta-catenin – cell-based, human colon tumor, dose response (AID 1045); assay type: functional;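 further: HCT116 colon tumor cells with beta catenin knocked out; cells exposed to compound for 60 hours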
[5] = system: Streptococcus sp. 'group A'; test: Streptococcus pyogenes SK(-)GAS viability under kanamycin – luminescence, BacTiterGlo, confirmation, counter-screen for streptokinase expression inhibitor project, dose response (AID 1900); assay type: functional, organism-based
Streptokinase A = target: T2, Streptokinase A (Streptococcus pyogenes serotype M1, UniProt P10520); test: viability-normalized secreted streptokinase activity reduction – plasminogen activation absorbance, OD405, dose response (AID 1914); assay type: functional, Streptococcus pyogenes M1 GAS;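 further: secreted streptokinase activity via plasminogen activation per viability signal from cell pellet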
T2 sequence (P10520 whole entry): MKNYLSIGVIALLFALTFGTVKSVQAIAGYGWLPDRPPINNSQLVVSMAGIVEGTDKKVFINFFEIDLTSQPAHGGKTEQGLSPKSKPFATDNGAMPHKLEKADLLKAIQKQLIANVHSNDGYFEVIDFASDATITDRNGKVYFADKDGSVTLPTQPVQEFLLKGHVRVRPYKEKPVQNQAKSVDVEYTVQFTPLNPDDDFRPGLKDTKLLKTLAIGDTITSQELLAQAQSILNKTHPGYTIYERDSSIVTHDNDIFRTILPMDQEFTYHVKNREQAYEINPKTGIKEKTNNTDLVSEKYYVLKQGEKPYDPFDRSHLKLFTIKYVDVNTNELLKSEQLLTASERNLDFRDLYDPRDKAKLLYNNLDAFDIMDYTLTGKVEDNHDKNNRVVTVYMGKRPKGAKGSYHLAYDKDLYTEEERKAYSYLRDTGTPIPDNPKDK

[6] = blockade of melanocortin 4 receptor signaling – cell-based, plate reader, cherry pick, counter-screen for LGR2 antagonist project, dose response (AID 743444); assay type: functional;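 further: transfected HEK 293 cells stimulated with alpha-MSH peptide; potency of inhibitors of the alpha-MSH evoked signal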
[7] = blockers of bursicon-stimulated LGR2 cAMP reporter – cell-based, HEK293, CRE-luciferase reporter, cherry pick, set 2, dose response (AID 743343); assay type: functional;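 further: transfected cells were stimulated with diluted bursicon conditioned medium after compound addition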
[8] = target: T3, Corticotropin-releasing factor receptor 2/Corticotropin-releasing factor-binding protein (Homo sapiens, UniProt P24387+Q13324); test: activators of CRF receptor 2 with binding protein – uHTS hits, confirmation (AID 602473); assay type: functional; conditions: read-out: EC50_Mean
T3 sequence (Q13324 whole entry): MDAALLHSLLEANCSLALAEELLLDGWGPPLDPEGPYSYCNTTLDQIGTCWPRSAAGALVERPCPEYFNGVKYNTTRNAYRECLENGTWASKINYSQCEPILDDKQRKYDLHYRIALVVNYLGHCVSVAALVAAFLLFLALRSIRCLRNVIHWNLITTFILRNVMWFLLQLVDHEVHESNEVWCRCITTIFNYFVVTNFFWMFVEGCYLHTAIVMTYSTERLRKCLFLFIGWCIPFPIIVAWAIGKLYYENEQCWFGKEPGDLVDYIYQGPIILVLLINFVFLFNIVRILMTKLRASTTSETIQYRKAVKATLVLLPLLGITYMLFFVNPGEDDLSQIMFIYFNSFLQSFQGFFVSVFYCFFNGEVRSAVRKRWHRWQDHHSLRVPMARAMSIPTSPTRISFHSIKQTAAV
T3 sequence (P24387 whole entry): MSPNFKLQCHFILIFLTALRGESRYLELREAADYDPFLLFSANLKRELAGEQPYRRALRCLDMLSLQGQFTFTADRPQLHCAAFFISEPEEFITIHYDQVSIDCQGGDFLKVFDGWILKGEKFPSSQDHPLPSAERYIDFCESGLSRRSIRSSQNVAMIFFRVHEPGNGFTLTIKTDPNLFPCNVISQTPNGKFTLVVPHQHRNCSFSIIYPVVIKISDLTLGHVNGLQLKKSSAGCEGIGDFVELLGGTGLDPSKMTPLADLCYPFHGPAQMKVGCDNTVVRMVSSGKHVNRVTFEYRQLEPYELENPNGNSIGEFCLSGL

[9] = NIH-3T3 fibroblast cytotoxicity, dose response, cytotoxicity control, cell-based, fluorescence, Alamar Blue, secondary assay (AID 2327); assay type: functional;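 further: NIH-3T3 mouse fibroblasts cultured with fluconazole at 8 µg/mL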
[10] = fluconazole-exposed Candida albicans growth modulators – fluorescence, retest, confirmation (AID 2467); assay type: functional, cell-based
[11] = target: T4, Ubiquitin-conjugating enzyme E2 N (Homo sapiens, UniProt P61088); assay type: functional;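 further: Dose-response confirmation in a TR-FRET assay detecting UBC13-driven polyubiquitin chain formation, inhibition measured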
T4 sequence (P61088 whole entry): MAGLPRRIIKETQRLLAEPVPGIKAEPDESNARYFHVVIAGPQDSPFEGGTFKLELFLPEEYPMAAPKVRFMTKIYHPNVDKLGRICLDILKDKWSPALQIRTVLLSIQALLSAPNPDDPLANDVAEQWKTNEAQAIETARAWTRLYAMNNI

INS1 = test: INS-1E survival protection against cytokine death – cell-based, luminescence, retest, dose response (AID 449756); assay type: functional; conditions: Rattus norvegicus;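 further: cell death triggered by IL-1 beta plus TNF-alpha plus IFN-gamma mixture; protective hits raise ATP signal compared with cytokine alone wells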
[12] = microbe, parasite or virus in culture; assay type: functional; conditions: Mycobacterium tuberculosis
[13] = viability of uninfected HEp-2 cells – cell-based, HTS, cytotoxicity control for RSV inhibitor project, dose response (AID 2410); assay type: functional; conditions: human respiratory syncytial virus
H9c2 = test: cells; assay type: functional, cell-based; conditions: Rattus norvegicus, H9c2, Myocardium;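 further: confirmatory concentration-response retest of ultra-high-throughput screening hits for modulation of myocardial damage; cell death induced by hydrogen peroxide oxidative stress; compound pretreatment for 60 min then peroxide exposure for 2 h; potency is for protecting the cells against peroxide damage rather than for killing them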
H4 = test: Luminescence Cell-Based Dose Response HTS to Identify Activators of 5'UTR Stem-Loop Driven Prion Protein mRNA Translation in H4 Neuroglioblastoma Cells. [Related pubchem assays: 1829 (Project Summary), 1814 (Primary HTS)]; assay type: functional; conditions: Homo sapiens
[14] = Luminescence Cell-Based Dose Response HTS to Identify Activators of Luciferase Translation or Activity in H4 […] Cells. [Related pubchem assays: 1829 (Project Summary), 1814 (Primary HTS)]; assay type: functional
[15] = Luminescence Cell-Based Dose Confirmation HTS to Identify Activators of 5'UTR Stem-Loop Driven Alpha-Synuclein mRNA Translation in H4 Neuroglioblastoma Cells. [Related pubchem assays: 1829 (Project Summary), 1814 (Primary HTS)]; assay type: functional
Cytochrome P450 2D6 = Cytochrome P450 2D6 (Homo sapiens, UniProt P10635);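 further: CYP2D6 member of a cytochrome P450 panel assay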
Chain of Cytochrome P450 2D6 (P10635 whole entry): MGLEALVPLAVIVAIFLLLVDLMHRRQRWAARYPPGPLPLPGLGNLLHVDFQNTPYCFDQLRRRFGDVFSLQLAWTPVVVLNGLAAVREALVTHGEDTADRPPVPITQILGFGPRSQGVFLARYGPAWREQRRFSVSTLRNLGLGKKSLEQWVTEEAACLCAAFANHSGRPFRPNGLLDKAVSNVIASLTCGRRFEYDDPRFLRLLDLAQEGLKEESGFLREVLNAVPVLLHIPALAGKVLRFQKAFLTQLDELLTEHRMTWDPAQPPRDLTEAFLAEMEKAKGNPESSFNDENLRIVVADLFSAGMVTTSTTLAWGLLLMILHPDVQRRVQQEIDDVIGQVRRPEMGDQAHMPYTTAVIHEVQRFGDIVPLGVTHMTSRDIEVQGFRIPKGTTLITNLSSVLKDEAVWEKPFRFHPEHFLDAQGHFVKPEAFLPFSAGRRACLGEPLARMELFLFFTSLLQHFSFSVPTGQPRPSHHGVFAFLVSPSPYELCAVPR

Cytochrome P450 1A2 = target: T5, Cytochrome P450 1A2 (Homo sapiens, UniProt P05177);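 further: PubChem cytochrome P450 panel assay, CYP1A2 panel member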
T5 sequence (P05177 whole entry): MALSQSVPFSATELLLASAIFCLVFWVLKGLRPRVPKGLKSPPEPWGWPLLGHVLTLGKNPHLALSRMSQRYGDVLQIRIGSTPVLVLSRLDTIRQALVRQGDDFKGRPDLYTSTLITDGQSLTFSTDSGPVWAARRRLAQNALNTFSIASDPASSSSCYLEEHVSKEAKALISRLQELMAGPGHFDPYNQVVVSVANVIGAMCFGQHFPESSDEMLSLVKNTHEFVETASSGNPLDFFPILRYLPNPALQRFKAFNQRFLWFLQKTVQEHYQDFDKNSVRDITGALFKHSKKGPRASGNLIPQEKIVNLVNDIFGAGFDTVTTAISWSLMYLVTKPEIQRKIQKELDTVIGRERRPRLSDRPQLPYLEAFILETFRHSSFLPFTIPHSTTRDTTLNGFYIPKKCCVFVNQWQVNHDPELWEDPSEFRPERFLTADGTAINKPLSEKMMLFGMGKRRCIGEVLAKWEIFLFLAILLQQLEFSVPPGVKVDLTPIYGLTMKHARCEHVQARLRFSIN

[16] = NIH3T3 cell viability loss – ATP luminescence, mouse fibroblasts, counter-screen, dose response (AID 2010); assay type: functional, cell-based;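 further: cells exposed to compound for about 90 hours before reading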
[17] = Trypanosoma cruzi growth suppression in host cells – NIH3T3 host cells, beta-gal luminescence, confirmation (AID 2044); assay type: functional, cell-based;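 further: intracellular parasites grown in NIH/3T3 mouse fibroblasts as host cells; luminescent beta-galactosidase reporter signal from transgenic T. cruzi replicating inside host cells; inhibitors lower the luminescence signal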

Chain of FAD-linked sulfhydryl oxidase ALR (P55789 whole entry): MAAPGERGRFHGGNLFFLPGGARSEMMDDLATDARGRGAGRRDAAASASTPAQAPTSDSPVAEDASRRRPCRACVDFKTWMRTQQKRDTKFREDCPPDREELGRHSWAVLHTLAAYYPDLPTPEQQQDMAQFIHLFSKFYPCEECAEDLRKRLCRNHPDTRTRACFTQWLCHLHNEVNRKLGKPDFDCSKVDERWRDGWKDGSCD

CCCc1cc(C(N)=O)c(NC(=O)c2ccoc2C)s1
AC50 [1]: 2.74 µM (active)

COc1cc2nc(S)n3nc(CCn4nc(C)cc4C)nc3c2cc1OC
IC50 [2]: 23.2 µM (active)
EC50 [3]: 14.5 µM (active)
EC50 (Streptococcus): > 150 µM (not active)
EC50 [4]: 25 µM (active)
EC50 [5]: 28.4 µM (active)
EC50 (Streptokinase A): > 150 µM (not active)

c1ccc(-n2ncc3c(N4CCCCC4)ncnc32)cc1
AC50 [6]: 2.83 µM (active)
AC50 [7]: 1.94 µM (active)

Cc1nc(SCc2cccnc2)nc(O)c1C
AC50 [1]: 1.18 µM (active)

[O-][S+](c1ccc2ccccc2c1)c1cnns1 (stereo not drawn)
AC50 [1]: 0.769 µM (active)

COc1ccc(N2CCN(CCCNC(=O)C3CCCN(S(=O)(=O)c4c[nH]cn4)C3)CC2)cc1 (stereo not drawn)
AC50 [1]: 25.4 µM (active)

O=C1c2ccccc2C(=O)N1c1ncc(Cc2ccc(Cl)cc2)s1
EC50 [8]: 2.43 µM (active)

O=C(O)c1ccc(NC(=O)C2CCCCC2)cc1
EC50 [8]: > 53 µM (inactive)

CCCCCc1ccc(OCCCC[n+]2ccccc2)c(CCCCC)c1
EC50 [9]: > 160 µM (inactive)
EC50 (Streptococcus): 8.33 µM (active)
EC50 [10]: < 0.03 µM (active)
IC50 [11]: > 20 µM (inactive)
EC50 [5]: 3.85 µM (active)
EC50 (Streptokinase A): 27.1 µM (active)
AC50 (INS1): 2.79 µM (active)

O=C(Nc1ccc(OC(F)(F)F)cc1)c1ccc2c(c1)no[n+]2[O-]
CC50 [12]: 20.6 µM (active)

CC(=O)c1ccccc1OCC(O)CN1CCN(CCN2C(=O)c3cccc4cccc(c34)C2=O)CC1 (stereo not drawn)
CC50 [13]: > 50 µM (active)
IC50 [11]: > 20 µM (inactive)
IC50 (H9c2): 23.1 µM (active)

Cc1ccc(S(=O)(=O)NNC(=O)NC23CC4CC(CC(C4)C2)C3)cc1
AC50 [1]: 1.02 µM (active)

CC1=NN(c2ccccc2)C(=O)/C1=C/c1cc2cc(C)ccc2nc1N1CCCCC1
EC50 [3]: 17.8 µM (active)
EC50 (H4): > 120 µM (inconclusive)
EC50 [4]: 25.2 µM (active)
EC50 [14]: 17.1 µM (active)
EC50 [15]: 8.69 µM (active)

O=C(NC(=S)Nc1ccc(N2CCN(C(=O)c3ccccc3)CC2)cc1)c1cccs1
IC50 [11]: > 20 µM (inactive)

CN(C)CCNc1oc(COc2ccc(Cl)cc2Cl)nc1C#N
AC50 (Cytochrome P450 2D6): 14.1 µM (inconclusive)
IC50 [11]: > 20 µM (inactive)
AC50 (Cytochrome P450 1A2): 25.1 µM (inconclusive)

O=C(/C=C/c1ccco1)Nc1cccc(-c2nc3ccccc3[nH]2)c1
EC50 [9]: > 150 µM (inactive)
EC50 [10]: 1.86 µM (active)
CC50 [12]: 30.8 µM (active)

O=C(NCSc1ccncn1)c1ccccc1
AC50 [1]: 1.49 µM (active)

C#CCOCCOCCOCCNc1nc(N2CCN(C(=O)[C@H]([C@@H](C)CC)n3cc([C@@H](N)CC(C)C)nn3)CC2)nc(N2CCN(C(=O)[C@H]([C@@H](C)CC)n3cc([C@@H](N)CC(C)C)nn3)CC2)n1
IC50 [11]: > 20 µM (inactive)

Cc1ccc(OCCCC(=O)NNC(=O)c2ccccn2)cc1
IC50 [11]: > 20 µM (inactive)

OC(CNCC1CCCO1)Cn1c2ccc(Br)cc2c2cc(Br)ccc21 (stereo not drawn)
EC50 [3]: 4.41 µM (active)
EC50 [9]: 9.05 µM (inconclusive)
EC50 (Streptococcus): 8.12 µM (active)
EC50 [10]: > 38 µM (not active)
EC50 [4]: 4.46 µM (active)
EC50 [16]: > 60 µM (inconclusive)
EC50 [5]: 3.18 µM (active)
EC50 [17]: 0.533 µM (active)
EC50 (Streptokinase A): 7.22 µM (active)

CC(=O)OC[C@H]1O[C@@H](O[C@@H]2C[C@H]3C(C)(C)[C@H](OC(C)=O)CC[C@]3(C)[C@H]3CC[C@]45C[C@]4(CC[C@H]5[C@@H](C)C[C@@H](O)[C@H](O)C(C)(C)O)[C@@]32C)[C@H](O)[C@@H](O)[C@@H]1O [CUMINGIANOSIDE A]
EC50 [3]: 8.19 µM (active)
EC50 [4]: 8.05 µM (active)
CC50 [12]: 27.7 µM (active)
